Assay results published in patent US20260132374A1, “Compositions and Methods for Efficient Amplification of Retinal Progenitors Cells” (SORBONNE UNIVERSITE, priority 2018, published 2026).

Tested on: hiRPCp2
Experiment: Differentiation ability of hiRPCp2 expanded in K+ medium (qRT-PCR of CRX and BRN3A)
Assay type: cell-based, human
Conditions: Diff-2, late forced differentiation in ProB27 medium supplemented by DAPT, D10, qRT-PCR of CRX
Method: Total RNAs were extracted using Nucleospin RNA II kit (Macherey-Nagel) according to the manufacturer's protocol, and RNA yields and quality were checked with a NanoDrop spectrophotometer (Thermo Fisher Scientific). cDNA were synthesized from 250 ng of mRNA using the QuantiTect reverse transcription kit (Qiagen) following manufacturer's recommendations. Synthesized cDNA were then diluted at 1/20 in DNase-free water before performing quantitative PCR. qPCR analysis was performed on an Applied Biosystems real-time PCR machine (7500 Fast System) with custom TaqMan® Array 96-Well Fast plates and TaqMan® Gene expression Master Mix (Thermo Fisher Scientific) following manufacturer's instructions. All primers and MGB probes labeled with FAM for amplification were purchased from Thermo Fischer Scientific as described in Reichman et al., 2017 [2], ASCL1 (Assay ID Hs04187546_g1). Results were normalized against 18S and quantification of gene expression was based on the DeltaCt Method.
We tested the ability of the hiRPCs expanded after two passages (hiRPCp2) in K+ medium to be differentiated in retinal neurons. Three different culture conditions were tested: 1—By a spontaneous differentiation in ProB27 medium, a control condition. 2—By an “early forced” differentiation using ProB27 medium supplemented by DAPT, a Notch pathway inhibitor, directly after K+ medium condition at D3 (Diff 1). […]

C[C@H](NC(=O)Cc1cc(F)cc(F)c1)C(=O)N[C@H](C(=O)OC(C)(C)C)c1ccccc1 [DAPT]
differentiation of hiRPCp2: favors the hiRPCs differentiation in photoreceptor precursors
